Results reported in patent publication US6235514A, “Nucleic acid molecules encoding isopentenyl monophosphate kinase, and methods of use” (Washington State University Research Foundation, priority 1999, dated 2001).
“And” between values parts separate entries of the source, which are not always exact repeats. Identical values can stand only once.

Legend:
[1] = target: E. coli IP kinase (ychB, SEQ ID NO:6), partially purified (Escherichia coli, UniProt P62615); test: Kinase assay, partially purified recombinant E. coli IP kinase; type: biochemical; conditions: for Cofactor / phosphate donor requirement of kinase activity: IP as substrate, partially purified E. coli kinase; for Phosphorylating activity with substrate, in words, partially purified E. coli kinase: partially purified protein
Chain of E. coli IP kinase (ychB, SEQ ID NO:6), partially purified (P62615 whole entry): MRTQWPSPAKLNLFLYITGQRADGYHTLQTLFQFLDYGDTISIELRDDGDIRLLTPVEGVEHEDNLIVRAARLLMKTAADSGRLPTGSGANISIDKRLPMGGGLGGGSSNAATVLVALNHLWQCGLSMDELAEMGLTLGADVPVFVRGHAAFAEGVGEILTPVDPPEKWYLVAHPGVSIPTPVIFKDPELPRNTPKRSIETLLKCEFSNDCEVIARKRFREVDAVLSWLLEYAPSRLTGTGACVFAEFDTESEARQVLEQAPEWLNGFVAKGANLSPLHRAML

[2] = target: T1, recombinant peppermint kinase (isopentenyl monophosphate kinase, SEQ ID NO:2) (Mentha piperita, UniProt P56848); test: Kinase assay, recombinant peppermint IP kinase, crude extracts of transformed E. coli; type: biochemical, peppermint (Mentha x piperita); conditions: crude extract, standard assay conditions
T1 sequence (P56848 98-405): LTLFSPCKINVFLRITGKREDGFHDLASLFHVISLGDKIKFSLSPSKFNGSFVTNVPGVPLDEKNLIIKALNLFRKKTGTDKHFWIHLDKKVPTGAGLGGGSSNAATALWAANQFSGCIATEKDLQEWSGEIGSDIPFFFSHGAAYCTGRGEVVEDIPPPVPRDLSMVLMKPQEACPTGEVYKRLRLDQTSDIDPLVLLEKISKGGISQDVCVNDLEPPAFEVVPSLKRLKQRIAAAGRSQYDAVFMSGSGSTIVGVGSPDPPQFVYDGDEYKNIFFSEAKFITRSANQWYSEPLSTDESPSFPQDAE

[3] = tested on: E. coli background (repressed, 0.02% glucose); test: Kinase assay, E. coli background (repressed) controls; type: biochemical; conditions: crude extract, transgene repressed with 0.02% glucose; rates are minimums
[4] = target: E. coli IP kinase (ychB, SEQ ID NO:6) (Escherichia coli, UniProt P62615); test: Kinase assay, recombinant E. coli IP kinase (induced), crude extracts; type: biochemical; conditions: crude extract, induced with 0.02% arabinose; rates are minimums
Chain of E. coli IP kinase (ychB, SEQ ID NO:6) (P62615 whole entry): as the sequence (P62615 whole entry) above

[5] = tested on: isolated peppermint oil gland secretory cells; test: Feeding studies with isolated peppermint oil gland secretory cells, incorporation into terpenoids; type: cell-based, peppermint (Mentha x piperita L. cv. Black Mitcham); conditions: radiolabeled precursor, 23° C., 2 h; average of two experiments; includes geraniol and farnesol
Description: Isolation of and Feeding Studies with Peppermint Oil Gland Secretory Cells: Leaves (15-20 g; <10 mm in length) were excised from peppermint plants (Mentha x piperita L. cv. Black Mitcham) and the oil gland secretory cells were isolated by the glass bead abrasion method (McCaskill, D. & Croteau, R., Planta, 197:49-56 [1995]). Following isolation, the secretory cells were washed with 25 mM Tris/HCl buffer (pH 7.3) containing 200 mM sorbitol, 10 mM sucrose, 5 mM MgCl2, 10 mM KCl, 1 mM ethyleneglycol bis(β-aminoethyl ether), 8.5 mM Na2 HPO4, and 0.1 mM Na4 P2 O7, and then suspended in the same buffer supplemented with 2 mM ATP, 0.1 mM NADPH, 0.1 mM NAD^+, 5 mM phosphoenol pyruvate, and 5 mM glucose-6-phosphate. Cell density was determined using a hemocytometer and was adjusted to 1-2×10^5 cellular disks (each containing eight secretory cells) per milliliter suspension. Aliquots (1-1.5 ml) were transferred to 15 ml screw-cap glass vials, and the suspended cells were aerated and incubated at 23° C. for 2 h. At the end of the incubation period, the suspension was extracted three times with 1 ml diethyl ether. The combined organic extract was washed with 1 ml of 1 M Na2 CO3 and dried over Na2 SO4. An aliquot was removed for liquid scintillation counting and, to the remainder, authentic standards (10-50 μg each) of isopentenol, dimethylallyl alcohol, geraniol, farnesol, limonene, menthone, menthol, pulegone, humulene, and caryophyllene were added. These extracts were then slowly concentrated on ice under a gentle stream of N2 to ~200 μl, and were then transferred to conical glass vials and further concentrated to 5-10 μl at 20° C. in preparation for chromatographic analysis.
Radio-GLC Analysis of Peppermint Isoprenoids: Radio-GC was performed according to a published method (Croteau, R. & Satterwhite, D. M. J. Chromatog. 500:349-354 [1990]) with several modifications; 0.25 mm i.d.×30 m AT 1000 fused silica column with 0.2 μm film thickness (Alltech); helium carrier gas at 3-6 ml/min^-1; temperature program from 70 to 200° C. at 5° C./min^-1; injector at 200° C.; thermal conductivity detector at 220° C. and 140 mA; propane quench gas at 10-15 ml/min^-1. The relative peak area corresponding to each biosynthetic product was converted to dpm as a fraction of the total radioactivity determined by liquid scintillation counting prior to concentration. The absolute amount of each component formed was then calculated based on the specific activity of the corresponding radiolabeled substrate.

Compound	Cofactor / phosphate donor requirement of kinase activity [1]	Total Terpenoids (C10 + C15), rate of incorporation into total monoterpenoids and sesquiterpenoids [5]	also measured
Nc1ncnc2c1ncn2[C@@H]1O[C@H](COP(=O)(O)OP(=O)(O)OP(=O)(O)O)[C@@H](O)[C@H]1O [ATP]	dependent upon the presence		
Nc1ccn([C@@H]2O[C@H](COP(=O)(O)OP(=O)(O)OP(=O)(O)O)[C@@H](O)[C@H]2O)c(=O)n1 [CTP]	did not serve as alternate phosphate donors		
CC(C)=CCO [DMA, dimethylallyl alcohol]		negligible	Kinase activity with substrate, recombinant peppermint kinase [2]: ≤ 0.01 pmol (s g protein)^-1; Rate (kinase activity with substrate), E. coli (repressed) [3]: < 0.01 pmol/s · g protein; Rate (kinase activity with substrate), E. coli (induced) [4]: < 0.01 pmol/s · g protein; Rate (kinase activity with substrate), E. coli (partially purified) ([1]; Ni2+ affinity-purified enzyme, averages with standard deviation): 11 ± 5 pmol/s · g protein; Phosphorylating activity with substrate, in words, partially purified E. coli kinase [1]: readily catalyzed the conversion
CC(C)=CCOP(=O)(O)O [DMAP, dimethylallyl monophosphate]		6 pmol (h 10^5 cell clusters)^-1 and < 6 pmol (h 10^5 cell clusters)^-1	
CC(C)=CCOP(=O)(O)OP(=O)(O)O [DMAPP, dimethylallyl diphosphate]		4 pmol (h 10^5 cell clusters)^-1 and < 6 pmol (h 10^5 cell clusters)^-1	
Nc1nc2c(ncn2[C@@H]2O[C@H](COP(=O)(O)OP(=O)(O)OP(=O)(O)O)[C@@H](O)[C@H]2O)c(=O)[nH]1 [GTP]	did not serve as alternate phosphate donors		
C=C(C)CCOP(=O)(O)O [IP, isopentenyl monophosphate]		43 pmol (h 10^5 cell clusters)^-1	
C=C(C)CCOP(=O)(O)OP(=O)(O)O [IPP, isopentenyl diphosphate]		561 pmol (h 10^5 cell clusters)^-1	
C=C(C)CCO [ISO, isopentenol]		304 pmol (h 10^5 cell clusters)^-1	
C[C@](O)(CO)[C@H](O)COP(=O)(O)O [MEP, 2-C-methylerythritol-4-phosphate]			Kinase activity with substrate, recombinant peppermint kinase [2]: less than 0.2 pmol (s g protein)^-1; Rate (kinase activity with substrate), E. coli (repressed) [3]: < 0.2 pmol/s · g protein; Rate (kinase activity with substrate), E. coli (induced) [4]: < 0.2 pmol/s · g protein; Phosphorylating activity with substrate, in words, partially purified E. coli kinase [1]: no phosphorylating activity was detectable
[Cl-].[Cl-].[Mg+2] [MgCl2]	dependent upon the presence		
O=c1ccn([C@@H]2O[C@H](COP(=O)(O)OP(=O)(O)OP(=O)(O)O)[C@@H](O)[C@H]2O)c(=O)[nH]1 [UTP]	did not serve as alternate phosphate donors		
